The nature of series [1]: Gel inhibition in concentrated aqueous vancomycin.HCl solutions. It is filed as physicochemical. Set-up: key: G = gel formation; NG = No gel formation. To be noted: test compound 10% v/v in aqueous vancomycin.HCl 20% w/v, pH about 3.2, Waring blender high speed 3 minutes. How it is done: The experiments were carried out to determine the effect on gel formation in aqueous solutions of vancomycin HCl at a concentration of 20% w/v. The solutions were prepared as follows. An aqueous vehicle containing the test compound in an amount sufficient to provide 10% v/v in the final solution was prepared with water. Vancomycin-free base was added to the aqueous vehicle in an amount sufficient to provide a 20% w/v concentration in the final solution. The slurry of base in the aqueous vehicle was treated with 20% hydrochloric acid to form vancomycin.HCl salt and to adjust the pH to about 3.2. The solution which formed was kept covered to avoid loss of the test compound and water was added to the final volume. The solution was blended in a Waring blender at high speed for 3 minutes and then transferred to clear bottles to observe for gel formation.

Series [2] can be described thus: Gel formation of aqueous vancomycin hydrochloride solutions. The note with it: particularly when agitated by stirring, shaking or blending. It is filed as physicochemical.
For series [3] the following is noted: room temperature; cited from earlier work.
A short description of series [4]: Vancomycin.HCl solubility in gel inhibitory compounds (UV or HPLC assay).
Protocol: The solubility of vancomycin.HCl in some of the gel inhibitory compounds was determined as follows. A two-gram quantity of chromatographically purified vancomycin hydrochloride was added to 100 ml of each compound under consideration. Fresh compound was used when possible to minimize the water content. […] The mixtures were stirred at a moderate rate for 4 hours, with sample aliquots removed at timepoints of 10 minutes, 2 hours and 4 hours. The mixtures were then allowed to stand overnight. A final aliquot was taken at the 20- to 24-hour timepoint. The sample aliquots were assayed by UV absorption measurements or HPLC with UV detection.
UV absorption at 280 nm was used to measure the concentration of vancomycin in the sample solutions made with the transparent solvents. Each sample was filtered through medium-pore filter paper and diluted with water to provide an absorption less than 1.0 A. The remaining compounds, acetone and ethyl acetate, required solvent removal before the measurement step. After filtration, sample aliquots were dried under nitrogen and reconstituted with an aqueous buffer for assay by HPLC. The propylene glycol sample were also assayed by HPLC after appropriate dilution without a drying step.

Structures can show the parent of a compound that is named as a salt.

In the case of `CC(C)=O` [Acetone], the “Test Result (gel formation)” value in series [1] is “NG”.
The same measure, in the same setting: the result for `CCO` [Ethanol] reads “NG”.
On the same count and under the same terms, the result for `CCOC(C)=O` [Ethyl acetate] reads “G”.
Turning to `OCC(O)CO` [Glycerin], in series [1], the “Test Result (gel formation)” value is recorded as “G”.
Still for that read-out and setting: then `CC(C)O` [Isopropanol], with “NG”; and `CC(=O)OC(C)C` [Isopropyl acetate], with “NG”.
Still for that read-out and setting: then `CO` [Methanol], with “G”; and `CCC(C)=O` [Methyl ethyl ketone], with “NG”; and `CC(O)CO` (centres unmarked) [Propylene glycol], with “NG”.
Turning to `CN[C@H](CC(C)C)C(=O)N[C@H]1C(=O)N[C@@H](CC(N)=O)C(=O)N[C@H]2C(=O)N[C@H]3C(=O)N[C@H](C(=O)N[C@H](C(=O)O)c4cc(O)cc(O)c4-c4cc3ccc4O)[C@H](O)c3ccc(c(Cl)c3)Oc3cc2cc(c3O[C@@H]2O[C@H](CO)[C@@H](O)[C@H](O)[C@H]2O[C@H]2C[C@](C)(N)[C@H](O)[C@H](C)O2)Oc2ccc(cc2Cl)[C@H]1O` [Vancomycin.HCl, vancomycin hydrochloride], the “concentration in water above which solutions form gels” value in series [2] is reported as “above 12 % w/v”. The solubility in water result in series [3] is on record as “about 200 mg/ml”. Besides, the Solubility is below 0.01 mg/mL in series [4] (in acetone, 10 min, HPLC assay); below 0.01 mg/mL in series [4] (in acetone, 2 hrs, HPLC assay); below 0.01 mg/mL in series [4] (in acetone, 4 hrs, HPLC assay); below 0.01 mg/mL in series [4] (in acetone, 20 hrs, HPLC assay); below 0.01 mg/mL in series [4] (in ethyl acetate, 10 min, HPLC assay); below 0.01 mg/mL in series [4] (in ethyl acetate, 2 hrs, HPLC assay). The Solubility in series [4] (in ethyl acetate, 4 hrs, HPLC assay) is below 0.01 mg/mL; in series [4] (in ethyl acetate, 20 hrs, HPLC assay) it was below 0.01 mg/mL; in series [4] (in isopropanol, 10 min, UV assay) it was 0.04 mg/mL; in series [4] (in isopropanol, 2 hrs, UV assay), 0.04 mg/mL; in series [4] (in isopropanol, 4 hrs, UV assay), 0.10 mg/mL; in series [4] (in isopropanol, 20 hrs, UV assay), 0.07 mg/mL. In addition, the Solubility was determined as 5.3 mg/mL in series [4] (in methanol, 10 min, UV assay); 3.7 mg/mL in series [4] (in methanol, 2 hrs, UV assay); 3.1 mg/mL in series [4] (in methanol, 4 hrs, UV assay); 2.4 mg/mL in series [4] (in methanol, 20 hrs, UV assay); 3.0 mg/mL in series [4] (in propylene glycol, 10 min, HPLC assay). Also, the “concentration at which gel forms in ethyl alcohol” value in series [4] (in ethyl alcohol (non-aqueous)) was “about 2 mg/ml”.

Source of the values: patent US4885275A, “Vancomycin-HCL solutions and the lyophilization thereof” (Eli Lilly and Company, priority 1987, dated 1989).
